Test results reported in the supplement of paper PMC8967900.

Assays:
Assay in all cases: selective drug sensitivity score (sDSS, relative to normal bone marrow) (sDSS (score)); higher = more potent and effective on the cell line relative to normal bone marrow cells
Details in all cases: 72 h
[1] = test system: ALL-PO
[2] = test system: COG-LL-317
[3] = test system: COG-LL-332h
[4] = test system: COG-LL-355h
[5] = test system: COG-LL-394h
[6] = test system: HPB-ALL
[7] = test system: KARPAS-45
[8] = test system: KASUMI-10
[9] = test system: KASUMI-9
[10] = test system: LC4-1
[11] = test system: MHH-CALL-2
[12] = test system: MHH-CALL-4
[13] = test system: MN-60
[14] = test system: MOLT-16
[15] = test system: NALM-16
[16] = test system: NALM-6
[17] = test system: P12-ICHIKAWA
[18] = test system: PF-382
[19] = test system: RCH-ACV
[20] = test system: SUP-B15
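Also: ALL cell lines in 384-well plates, five doses spanning 10,000-fold, each plate scaled between vehicle and 100 µmol/L benzalkonium chloride controls, sDSS an adapted area-under-curve metric.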

Structure (SMILES)	selective drug sensitivity score [1]	selective drug sensitivity score [2]	selective drug sensitivity score [3]	selective drug sensitivity score [4]	selective drug sensitivity score [5]	selective drug sensitivity score [6]	selective drug sensitivity score [7]	selective drug sensitivity score [8]	selective drug sensitivity score [9]	selective drug sensitivity score [10]	selective drug sensitivity score [11]	selective drug sensitivity score [12]	selective drug sensitivity score [13]	selective drug sensitivity score [14]	selective drug sensitivity score [15]	selective drug sensitivity score [16]	selective drug sensitivity score [17]	selective drug sensitivity score [18]	selective drug sensitivity score [19]	selective drug sensitivity score [20]
Cc1cn(-c2cc(NC(=O)c3ccc(C)c(Nc4nccc(-c5cnccn5)n4)c3)cc(C(F)(F)F)c2)cn1 [Radotinib] (top concentration 10000 nM)	3.7	0	19.6	0	1.8	6.4	0	0	9.2	13.8	10.1	0	0.4	0.4	0	0.9	0.7	0.2	9.4	36.2
Cn1nccc1Nc1nccc(-c2ccn([C@H](CO)c3ccc(Cl)c(F)c3)c(=O)c2)n1 [Ravoxertinib] (top concentration 10000 nM)	3.6	4.8	4.1	7.7	-0.2	-0.4	2.4	5.2	5.3	7	8.4	11	-3.2	4	-1.6	4	2.1	1.2	4.5	12.6
C/C=C1\NC(=O)[C@H]2CSSCC/C=C/[C@H](CC(=O)N[C@H](C(C)C)C(=O)N2)OC(=O)[C@H](C(C)C)NC1=O [Romidepsin] (top concentration 1000 nM)	6.96	0.76	1.36	-0.54	-0.94	3.66	2.86	1.86	3.16	1.76	6.76	3.06	-4.94	2.76	0.76	2.66	1.66	1.96	2.36	4.16
CNCc1ccc(-c2[nH]c3cc(F)cc4c3c2CCNC4=O)cc1 [Rucaparib] (top concentration 10000 nM)	-0.58	6.52	1.52	0.92	0.92	-0.58	0.72	1.12	2.72	0.32	9.02	5.92	-0.58	2.72	-0.58	0.62	-0.58	-0.58	1.02	5.42
CC(C)(C)c1cnc(CSc2cnc(NC(=O)C3CCNCC3)s2)o1 [SNS-032] (top concentration 10000 nM)	-6.74	1.66	-3.54	0.16	-2.04	-4.74	-2.24	-2.64	-0.54	-3.24	2.96	-1.04	-8.64	-0.64	-6.04	-2.44	-5.04	-5.34	1.26	-3.14
Cc1c(C(=O)Nc2ccc(N3C[C@@H](C)O[C@@H](C)C3)nc2)cccc1-c1ccc(OC(F)(F)F)cc1 [Sonidegib] (top concentration 10000 nM)	3.98	-1.02	-1.42	-3.92	-0.02	3.08	0.68	1.38	1.48	1.08	7.48	2.28	-1.42	3.18	-3.92	0.98	0.38	2.28	5.78	1.68
CNC(=O)c1cc(Oc2ccc(NC(=O)Nc3ccc(Cl)c(C(F)(F)F)c3)cc2)ccn1 [Sorafenib] (top concentration 1000 nM)	5.5	0	0.1	0	0	0.1	0.5	12.2	0	0	0.3	0	0	0	0	0.2	0	1.3	1.4	0
CN1CCN(c2nc(C3=C(c4c[nH]c5ccccc45)C(=O)NC3=O)c3ccccc3n2)CC1 [Sotrastaurin] (top concentration 10000 nM)	5	0	2	5.7	0.2	2.6	-0.4	7.7	0.5	1.7	9.9	4.2	-2.3	4.4	1.8	0.8	-1.3	-1.9	3.4	2.2
Cc1cc(C(C)Nc2ccccc2)c2nc(N3CCOCC3)cc(=O)n2c1 (stereo not given) [TGX-221] (top concentration 10000 nM)	1.16	-1.64	-1.54	2.96	-1.24	-1.64	1.46	-1.64	1.16	-1.64	5.16	-1.44	-1.64	-1.34	-1.64	3.56	-1.64	-0.84	13.5	0.36
Cc1nc(-c2cn3c(n2)-c2ccc(-c4cnn(C(C)(C)C(N)=O)c4)cc2OCC3)n(C(C)C)n1 [Taselisib] (top concentration 1000 nM)	13.2	0.8	0.7	11.9	-2.7	-0.4	2	1.7	6.3	-2.2	6.9	7.9	-0.4	2.8	4.2	9.5	-0.3	3	22.1	-1.4
Cn1cncc1[C@@](N)(c1ccc(Cl)cc1)c1ccc2c(c1)c(-c1cccc(Cl)c1)cc(=O)n2C [Tipifarnib] (top concentration 10000 nM)	9	15.3	9.3	4.5	-1.1	6.1	25.4	3	3.1	1.6	7.8	6.6	2	11.8	9.9	10.6	9.6	13	6.9	8.9
CN(C)CCOc1ccc(/C(=C(/CCCl)c2ccccc2)c2ccccc2)cc1 [Toremifene] (top concentration 10000 nM)	3.18	-0.22	0.98	2.28	0.58	-1.72	0.38	-5.42	0.58	1.08	9.68	0.48	0.78	3.38	-0.82	1.68	-1.12	1.08	6.88	2.58
CC(=O)Nc1cccc(-n2c(=O)n(C3CC3)c(=O)c3c(Nc4ccc(I)cc4F)n(C)c(=O)c(C)c32)c1 [Trametinib] (top concentration 250 nM)	-1.44	-7.74	-6.04	5.06	-4.34	-0.24	-7.14	-5.34	-1.14	2.46	2.96	0.06	-8.04	-1.94	-1.24	2.86	-3.64	-5.44	-8.04	13.6
O=C(CCCCCCC(=O)Nc1ccc([C@H]2O[C@@H](CSc3nc(-c4ccccc4)c(-c4ccccc4)o3)C[C@@H](c3ccc(CO)cc3)O2)cc1)NO [Tubacin] (top concentration 10000 nM)	5.74	10.3	14	7.14	5.44	4.44	5.04	4.54	6.54	7.14	7.74	7.84	5.44	9.14	7.14	9.94	14.9	8.14	11.2	16.5
CN1CCc2c(c3ccccc3n2Cc2ccc(C(=O)NO)cc2)C1 [Tubastatin_A] (top concentration 10000 nM)	3.06	1.96	1.46	3.16	-0.14	6.76	4.46	2.46	8.86	6.76	3.76	-0.14	2.16	2.86	-0.14	1.36	0.36	0.76	8.16	3.46
C[C@]1(c2nc3c(C(N)=O)cccc3[nH]2)CCCN1 [Veliparib] (top concentration 10000 nM)	-1.78	1.72	-1.48	2.82	-4.18	-0.28	-4.18	-1.08	1.72	-4.18	5.02	6.72	-3.38	0.32	-4.18	-2.48	-4.18	-4.08	-2.58	-1.08
CS(=O)(=O)c1ccc(C(=O)Nc2ccc(Cl)c(-c3ccccn3)c2)c(Cl)c1 [Vismodegib] (top concentration 10000 nM)	3.56	-1.14	-1.14	2.26	-1.14	0.76	-1.14	-1.14	-0.74	5.26	2.86	0.16	-1.14	-1.14	-1.14	-1.14	-1.14	-1.14	3.46	11.3
